The compounds below were run on NF-κB (assay: NF-κB assay: THP1-NF-κB-LUC cells, LPS-stimulated secreted luciferase). Conditions: THP1-NF-κB-LUC cells, LPS-stimulated; read-out: IC50 (NF-κB assay).
Assay type: cell-based
Protocol: FIG. 1 contains line plots showing NF-κB activity of exemplified compounds. 25k THP1-NF-κB-LUC cells were dispensed into 384 well plate (per well). Cells were treated with compounds (2 μM and 0.2 μM) for 2 hours before addition of LPS (10 ng/mL) for 18 hours. Secreted luciferase activity were measured using quant-luc reagents (1 bag of luc reagent dilute to 40 mL, use 10 μL per well). Data were normalized to vehicle control and graphed. Structures of selected exemplified compounds are shown.
FIG. 2 contains heat charts showing NF-κB activity of exemplified compounds as a function of concentration. 25k THP1-NF-κB-LUC cells were dispensed into 384 well plate (per well). Cells were treated with compounds (with serial dilution) for 2 hours before addition of LPS (10 ng/ml) for 18 hours. Secreted luciferase activity were measured using quant-luc reagents (1 bag of luc reagent dilute to 40 mL, use 10 μL per well). Structures of selected exemplified compounds are shown.
25k THP1-NF-κB-LUC cells were dispensed into 384 well plate (per well). Cells were treated with compounds with various concentrations for 2 hours before addition of LPS (10 ng/mL) for 18 hours. Secreted luciferase activity were measured using quant-luc reagents (1 bag of luc reagent dilute to 40 mL, use 10 μL per well). Data were normalized to vehicle control and graphed. Compound IC50 towards inhibiting NF-κB were determined through Prism. Similarly, 10k human PBMCs cells were cultured in 384 well plate (per well). Cells were treated with compounds with various concentrations for 2 hours before addition of LPS (10 ng/ml) for 18 hours, and supernatants were collected and assayed for TNF ELISA. Compound IC50 towards inhibiting TNF release were determined through Prism. • Activity: “+”>10 μM, “++”>1 μM and <10 μM, “+++”>0.1 μM and <1 μM, “++++”<0.1 μM.

Row | IC50 | Structure (SMILES)
1 | < 100 nM | CCN(CC)C(=O)c1ccc2nc(-c3ccccc3)c(-c3ccccc3)nc2c1 [BC18400]
2 | 100 to 1000 nM | CCOc1ccccc1CNC(=O)c1ccc2nc(-c3ccc(F)cc3)c(-c3ccc(F)cc3)nc2c1 [BC18401]
3 | 1000 to 10000 nM | CCCNC(=O)c1ccc2nc(-c3cccc(C)c3)c(-c3cccc(C)c3)nc2c1 [BC18402]
4 | < 100 nM | CC(C)NC(=O)c1ccc2nc(-c3ccc(F)cc3)c(-c3ccc(F)cc3)nc2c1 [BC18403]
5 | < 100 nM | CCOCCCNC(=O)c1ccc2nc(-c3ccc(F)cc3)c(-c3ccc(F)cc3)nc2c1 [BC18404]
6 | < 100 nM | O=C(NCc1cccnc1)c1ccc2nc(-c3ccccc3)c(-c3ccccc3)nc2c1 [BC18405]
7 | < 100 nM | CCC1CCN(CCNC(=O)c2ccc3nc(-c4ccccc4)c(-c4ccccc4)nc3c2)CC1 [BC18406]
8 | 1000 to 10000 nM | CNC(=O)c1ccc2nc(-c3cccc(C)c3)c(-c3cccc(C)c3)nc2c1 [BC18407]
9 | 100 to 1000 nM | COc1cccc(CNC(=O)c2ccc3nc(-c4ccc(F)cc4)c(-c4ccc(F)cc4)nc3c2)c1 [BC18408]
10 | < 100 nM | O=C(c1ccc2nc(-c3ccccc3)c(-c3ccccc3)nc2c1)N1CCCC1 [BC18409]
11 | < 100 nM | O=C(NCc1ccccn1)c1ccc2nc(-c3ccccc3)c(-c3ccccc3)nc2c1 [BC18410]
12 | 1000 to 10000 nM | CCOc1ccc(-c2nc3ccc(C(=O)NCCN(CC)CC)cc3nc2-c2ccc(OCC)cc2)cc1 [BC18411]
13 | 1000 to 10000 nM | O=C(c1ccc2nc(-c3ccccc3)c(-c3ccccc3)nc2c1)N1CCN(c2ccccc2)CC1 [BC18412]
14 | 100 to 1000 nM | CSc1ccc(CNC(=O)c2ccc3nc(-c4ccc(F)cc4)c(-c4ccc(F)cc4)nc3c2)cc1 [BC18413]
15 | > 10000 nM | Cc1cccc(-c2nc3ccc(C(=O)NCc4ccc(F)cc4)cc3nc2-c2cccc(C)c2)c1 [BC18414]
16 | < 100 nM | CCCNC(=O)c1ccc2nc(-c3ccc(F)cc3)c(-c3ccc(F)cc3)nc2c1 [BC18415]
17 | < 100 nM | CC(C)OCCCNC(=O)c1ccc2nc(-c3ccc(F)cc3)c(-c3ccc(F)cc3)nc2c1 [BC18416]
18 | < 100 nM | CCN(CC)CCCNC(=O)c1ccc2nc(-c3ccccc3)c(-c3ccccc3)nc2c1 [BC18417]

Row | IC50 | Structure (SMILES)
19 | 100 to 1000 nM | CCCN1CCN(CCCNC(=O)c2ccc3nc(-c4ccccc4)c(-c4ccccc4)nc3c2)CC1 [BC18418]
20 | 1000 to 10000 nM | CCCN(CCC)CCNC(=O)c1ccc2nc(-c3cccc(C)c3)c(-c3cccc(C)c3)nc2c1 [BC18419]
21 | 100 to 1000 nM | O=C(NCc1ccc(F)cc1)c1ccc2nc(-c3ccc(F)cc3)c(-c3ccc(F)cc3)nc2c1 [BC18420]
22 | > 10000 nM | O=C(NCc1ccc(Cl)cc1)c1ccc2nc(-c3ccccc3)c(-c3ccccc3)nc2c1 [BC18421]
23 | < 100 nM | COCCNC(=O)c1ccc2nc(-c3ccccc3)c(-c3ccccc3)nc2c1 [BC18422]
24 | < 100 nM | C=CCN(CC=C)C(=O)c1ccc2nc(-c3ccccc3)c(-c3ccccc3)nc2c1 [BC18423]
25 | 100 to 1000 nM | Cc1cccc(CNC(=O)c2ccc3nc(-c4ccc(F)cc4)c(-c4ccc(F)cc4)nc3c2)c1 [BC18424]
26 | 1000 to 10000 nM | Cc1cccc(-c2nc3ccc(C(=O)NCCN4CCOCC4)cc3nc2-c2cccc(C)c2)c1 [BC18425]
27 | < 100 nM | CCN(CC)CCNC(=O)c1ccc2nc(-c3ccc(F)cc3)c(-c3ccc(F)cc3)nc2c1 [BC18426]
28 | < 100 nM | CCNC(=O)c1ccc2nc(-c3ccc(F)cc3)c(-c3ccc(F)cc3)nc2c1 [BC18427]
29 | < 100 nM | CCN(CC)CCNC(=O)c1ccc2nc(-c3ccccc3)c(-c3ccccc3)nc2c1 [BC18428]
30 | < 100 nM | O=C(c1ccc2nc(-c3ccccc3)c(-c3ccccc3)nc2c1)N1CCOCC1 [BC18429]
31 | 1000 to 10000 nM | Cc1cccc(-c2nc3ccc(C(=O)NCCN4CCCC4)cc3nc2-c2cccc(C)c2)c1 [BC18430]
32 | 100 to 1000 nM | O=C(NC1CCCCC1)c1ccc2nc(-c3ccc(F)cc3)c(-c3ccc(F)cc3)nc2c1 [BC18431]
33 | 100 to 1000 nM | CCCCNC(=O)c1ccc2nc(-c3ccccc3)c(-c3ccccc3)nc2c1 [BC18432]
34 | > 10000 nM | Cc1ccc(CNC(=O)c2ccc3nc(-c4ccc(C)cc4)c(-c4ccc(C)cc4)nc3c2)cc1 [BC18433]
35 | 100 to 1000 nM | CCCN(Cc1ccc(C)cc1)C(=O)c1ccc2nc(-c3ccccc3)c(-c3ccccc3)nc2c1 [BC18434]

Same assay, conditions: THP1-NF-κB-LUC cells; compounds 2 hours before LPS (10 ng/mL) for 18 hours; secreted luciferase; read-out: IC50 (NF-κB assay)

Row | IC50 | Structure (SMILES)
36 | 100 to 1000 nM | N#Cc1ccc2c(=O)c(S(=O)(=O)c3ccc(F)c(Cl)c3)c[nH]c2c1 [BC18300]
37 | 1000 to 10000 nM | O=c1c(S(=O)(=O)c2cccc(F)c2)c[nH]c2c(F)cccc12 [BC18301]
38 | < 100 nM | Cc1ccc(S(=O)(=O)c2c[nH]c3cc(Cl)ccc3c2=O)cc1F [BC18302]
39 | < 100 nM | Cc1ccc(S(=O)(=O)c2c[nH]c3ccc(F)cc3c2=O)cc1F [BC18303]
40 | 1000 to 10000 nM | O=c1c(S(=O)(=O)c2cc(Cl)cc(Cl)c2)c[nH]c2ccc(Cl)cc12 [BC18304]
41 | 100 to 1000 nM | N#Cc1ccc2[nH]cc(S(=O)(=O)c3cc(Cl)cc(Cl)c3)c(=O)c2c1 [BC18305]
42 | > 10000 nM | N#Cc1ccc(S(=O)(=O)c2c[nH]c3ccc(F)cc3c2=O)cc1 [BC18306]
43 | 100 to 1000 nM | COc1ccc2[nH]cc(S(=O)(=O)c3ccc(C)c(F)c3)c(=O)c2c1 [BC18307]
44 | > 10000 nM | COc1ccc2[nH]cc(S(=O)(=O)c3cc(Cl)cc(Cl)c3)c(=O)c2c1 [BC18308]
45 | 1000 to 10000 nM | COc1ccc(S(=O)(=O)c2c[nH]c3cc(F)ccc3c2=O)cc1 [BC18309]
46 | < 100 nM | N#Cc1cccc(S(=O)(=O)c2c[nH]c3cc(C#N)ccc3c2=O)c1 [BC18310]
47 | > 10000 nM | Cc1ccc2[nH]cc(S(=O)(=O)c3ccc(C#N)cc3)c(=O)c2c1 [BC18311]
48 | > 10000 nM | COc1ccc2[nH]cc(S(=O)(=O)c3ccc(C#N)cc3)c(=O)c2c1 [BC18312]
49 | > 10000 nM | Cc1ccc(S(=O)(=O)c2cc3cc(Cl)ccc3oc2=O)cc1Cl [BC18313]
50 | > 10000 nM | Cc1ccc(S(=O)(=O)c2cc3cc(Br)ccc3oc2=O)cc1Cl [BC18314]
51 | > 10000 nM | Cc1cc(C)c(S(=O)(=O)c2ccc(Br)cc2)c(=O)[nH]1 [BC18315]
52 | > 10000 nM | COc1ccc2cc(S(=O)(=O)c3ccc(C)c(Cl)c3)c(=O)oc2c1 [BC18316]
53 | > 10000 nM | N#Cc1cccc(S(=O)(=O)c2cc3cc(Br)ccc3oc2=O)c1 [BC18317]
54 | > 10000 nM | CCc1ccc(C(=O)C2=CN(c3ccccc3)c3ccc(F)cc3S2(=O)=O)cc1 [BC18318]
55 | > 10000 nM | COc1cccc2cc(S(=O)(=O)c3ccc(C)c(Cl)c3)c(=O)oc12 [BC18319]
56 | < 100 nM | CCc1ccc(S(=O)(=O)c2c[nH]c3cc(F)c(F)cc3c2=O)cc1 [BC18320]

Row | IC50 | Structure (SMILES)
57 | 100 to 1000 nM | CCc1ccc(S(=O)(=O)c2c[nH]c3ccc(F)cc3c2=O)cc1 [BC18321]
58 | 1000 to 10000 nM | CC(C)(C)c1ccc(S(=O)(=O)c2c[nH]c3ccc(Br)cc3c2=O)cc1 [BC18322]
59 | 100 to 1000 nM | CCOc1ccc2[nH]cc(S(=O)(=O)c3ccc(CO)cc3)c(=O)c2c1 [BC18323]
60 | > 10000 nM | Cc1ccc(S(=O)(=O)c2cn(C)c3cc(F)c(F)cc3c2=O)cc1 [BC18324]
61 | > 10000 nM | CCn1cc(S(=O)(=O)c2ccc(C)cc2)c(=O)c2cc(F)ccc21 [BC18325]
62 | > 10000 nM | CCc1ccc2c(c1)c(=O)c(S(=O)(=O)c1ccc(C)cc1)cn2C [BC18326]
63 | > 10000 nM | CCOc1ccc2c(c1)c(=O)c(S(=O)(=O)c1ccc(Cl)cc1)cn2C [BC18327]
64 | 1000 to 10000 nM | Cc1ccc(S(=O)(=O)c2cn(Cc3cccc(C)c3)c3ccc(F)cc3c2=O)cc1 [BC18328]
65 | > 10000 nM | COc1ccc(S(=O)(=O)c2cn(CC(=O)Nc3ccc(C)cc3)c3ccc(Cl)cc3c2=O)cc1 [BC18329]
66 | > 10000 nM | COc1ccc(S(=O)(=O)c2cn(CC(=O)Nc3ccc(C)cc3)c3ccc(F)cc3c2=O)cc1 [BC18330]
67 | > 10000 nM | CCc1ccc(S(=O)(=O)c2cn(CCO)c3cc(F)c(F)cc3c2=O)cc1 [BC18331]
68 | > 10000 nM | COc1ccc(S(=O)(=O)c2cn(CC(=O)Nc3ccccc3)c3ccc(F)cc3c2=O)cc1 [BC18332]
69 | > 10000 nM | COc1cc2c(=O)c(S(=O)(=O)c3ccc(Cl)cc3)cn(Cc3ccccc3F)c2cc1OC [BC18333]
70 | > 10000 nM | COc1ccc(S(=O)(=O)c2cn(CC(=O)Nc3ccc(Cl)cc3)c3ccc(C)cc3c2=O)cc1 [BC18334]
71 | > 10000 nM | COc1ccc(S(=O)(=O)c2cn(CC(=O)Nc3ccc(F)cc3)c3ccc(C)cc3c2=O)cc1 [BC18335]
72 | > 10000 nM | CCCCn1cc(S(=O)(=O)c2ccc(C)cc2)c(=O)c2cc(Cl)ccc21 [BC18336]
73 | > 10000 nM | COc1cc2c(=O)c(S(=O)(=O)c3ccccc3)cn(Cc3cccc(Cl)c3)c2cc1OC [BC18337]
74 | > 10000 nM | COc1ccc2[nH]cc(S(=O)(=O)c3ccc(OC)c(OC)c3)c(=O)c2c1 [BC18338]
75 | 100 to 1000 nM | N#Cc1ccc(S(=O)(=O)c2c[nH]c3cc(F)ccc3c2=O)cc1F [BC18339]
76 | < 100 nM | O=c1c(S(=O)(=O)c2ccc(F)c(F)c2)c[nH]c2c(F)ccc(Cl)c12 [BC18340]
